Experimental data taken from PMC12637020, “Synthesis and biological evaluation of novel hydrazone derivatives for the treatment of Alzheimer's disease” (RSC Advances, 2025).

Columns and labels:
AChE enzyme = AChE enzyme (Homo sapiens, UniProt P22303); test: biochemical; type: biochemical; settings: for inhibition at 1000 µM: read-out: AChE% inhibition 10^−3 M; for inhibition at 100 µM: read-out: AChE% inhibition 10^−4 M; for IC50: tested at 10 to 0.001 µM
Text: (§1) The assay was completed in two steps.
(§2) The potential inhibitory effects of the obtained molecules on the AChE and BChE enzymes was examined using a variation of the Ellman method.[31,33,41–43] Distilled water from the Millipore/Milli-Q purification apparatus was utilized at every stage of the biological activity investigations during the evaluation process. In less than a week, all the solutions required for the biological investigation were meticulously prepared from scratch. A “BioTek-Precision Power (United States)” robotic pipetting system was utilized to distribute the prepared solutions and apply the test compounds and enzyme–substrate solutions to 96-well plates. The “BioTek-Synergy H1 Microplate Reader (United States)” was employed to establish and follow the enzyme protocol for spectrophotometric measurements. Solutions of the compounds were prepared at two different concentrations, 10^−3 M and 10^−4 M, using dimethylsulfoxide (DMSO) as 2% solution, and these were used in biological activity studies.

BChE enzyme = BChE enzyme (Homo sapiens, UniProt P06276); test: biochemical; settings: for inhibition at 1000 µM: read-out: BChE% inhibition 10^−3 M; for inhibition at 100 µM: read-out: BChE% inhibition 10^−4 M
Chain of BChE enzyme (P06276 29-602, species assumed): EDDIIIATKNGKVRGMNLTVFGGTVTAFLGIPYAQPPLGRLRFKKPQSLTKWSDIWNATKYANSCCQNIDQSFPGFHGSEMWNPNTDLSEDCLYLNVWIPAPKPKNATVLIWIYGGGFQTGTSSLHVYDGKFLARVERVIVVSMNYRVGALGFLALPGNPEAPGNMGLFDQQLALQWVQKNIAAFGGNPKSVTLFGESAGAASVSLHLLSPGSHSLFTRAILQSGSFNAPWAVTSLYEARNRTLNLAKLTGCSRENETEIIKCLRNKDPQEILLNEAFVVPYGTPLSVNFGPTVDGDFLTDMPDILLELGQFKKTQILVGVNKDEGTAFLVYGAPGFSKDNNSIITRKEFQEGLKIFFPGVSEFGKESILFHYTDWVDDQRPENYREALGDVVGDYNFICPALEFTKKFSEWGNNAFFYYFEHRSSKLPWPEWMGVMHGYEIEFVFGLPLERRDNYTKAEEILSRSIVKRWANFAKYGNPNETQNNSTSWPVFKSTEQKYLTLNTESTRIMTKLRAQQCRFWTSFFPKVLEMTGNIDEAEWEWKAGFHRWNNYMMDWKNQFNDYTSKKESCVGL
Text: as §1, §2

Chain of AChE enzyme (P22303 32-614): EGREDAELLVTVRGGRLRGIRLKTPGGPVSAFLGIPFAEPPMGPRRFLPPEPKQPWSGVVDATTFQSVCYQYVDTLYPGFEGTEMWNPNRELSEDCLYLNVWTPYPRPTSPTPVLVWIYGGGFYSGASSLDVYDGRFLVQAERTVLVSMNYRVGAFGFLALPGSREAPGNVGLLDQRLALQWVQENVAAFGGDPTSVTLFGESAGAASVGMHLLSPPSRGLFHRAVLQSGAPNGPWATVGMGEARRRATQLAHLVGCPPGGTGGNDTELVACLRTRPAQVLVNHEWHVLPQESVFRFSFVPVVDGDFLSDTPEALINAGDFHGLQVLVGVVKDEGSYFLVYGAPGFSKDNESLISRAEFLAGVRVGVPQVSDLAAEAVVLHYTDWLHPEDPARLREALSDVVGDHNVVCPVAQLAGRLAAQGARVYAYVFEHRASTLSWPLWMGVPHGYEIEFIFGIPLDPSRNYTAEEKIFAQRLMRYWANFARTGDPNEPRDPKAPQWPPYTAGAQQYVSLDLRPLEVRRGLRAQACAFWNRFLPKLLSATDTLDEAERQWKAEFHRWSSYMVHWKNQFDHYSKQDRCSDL

`CCn1c(-c2ccc(F)cc2)csc1=NN=C(C)c1ccc(N2CCCCC2)cc1` [D3b, 3-Ethyl-4-(4-fluorophenyl)-2-((1-(4-(piperidin-1-yl)phenyl)ethylidene)hydrazineylidene)-2,3-dihydrothiazole] was tested, and the inhibition at 1000 µM (AChE enzyme) was 40.2 ± 1.85%, the inhibition at 100 µM (AChE enzyme) was 35.8 ± 1.25% and the IC50 (AChE enzyme) was greater than 1 mM. The IC50 (BChE enzyme) was greater than 1 mM, the inhibition at 1000 µM (BChE enzyme) was 32.6 ± 1.46% and the inhibition at 100 µM (BChE enzyme) was 22.6 ± 0.964%.
For `CCn1c(-c2ccc([N+](=O)[O-])cc2)csc1=NN=C(C)c1ccc(N2CCCCC2)cc1` [D3c, 3-Ethyl-4-(4-nitrophenyl)-2-((1-(4-(piperidin-1 yl)phenyl)ethylidene)hydrazineylidene)-2,3-dihydrothiazole], the inhibition at 1000 µM (AChE enzyme) was 42.8 ± 2.04%, the inhibition at 100 µM (AChE enzyme) was 38.2 ± 1.74% and the IC50 (AChE enzyme) was greater than 1 mM. It also gave an IC50 (BChE enzyme) greater than 1 mM, an inhibition at 1000 µM (BChE enzyme) of 33.9 ± 1.54% and an inhibition at 100 µM (BChE enzyme) of 27.3 ± 1.16%.
`CCn1c(-c2ccc(Cl)cc2)csc1=NN=C(C)c1ccc(N2CCCCC2)cc1` [D3d, 4-(4-Chlorophenyl)-3-ethyl-2-((1-(4-(piperidin-1-yl)phenyl)ethylidene)hydrazineylidene)-2,3-dihydrothiazole] gave an inhibition at 1000 µM (AChE enzyme) of 32.3 ± 1.44%, an inhibition at 100 µM (AChE enzyme) of 23.3 ± 1.05% and an IC50 (AChE enzyme) greater than 1 mM. For the same molecule, the IC50 (BChE enzyme) was greater than 1 mM, the inhibition at 1000 µM (BChE enzyme) was 37.5 ± 1.46% and the inhibition at 100 µM (BChE enzyme) was 21.3 ± 1.07%.
Work on `CCn1c(-c2ccc(OC)cc2)csc1=NN=C(C)c1ccc(N2CCCCC2)cc1` [D3e, 3-Ethyl-4-(4-methoxyphenyl)-2-((1-(4-(piperidin-1-yl)phenyl)ethylidene)hydrazineylidene)-2,3-dihydrothiazole] yielded an inhibition at 1000 µM (AChE enzyme) of 34.1 ± 1.57%, an inhibition at 100 µM (AChE enzyme) of 21.6 ± 0.926% and an IC50 (AChE enzyme) greater than 1 mM. The IC50 (BChE enzyme) was greater than 1 mM, the inhibition at 1000 µM (BChE enzyme) was 36.3 ± 1.42% and the inhibition at 100 µM (BChE enzyme) was 30.3 ± 0.956%.
In the case of `CCn1c(-c2ccc(C#N)cc2)csc1=NN=C(C)c1ccc(N2CCCCC2)cc1` [D3f, 4-(-3-Ethyl-2-((-1-(4-(piperidin-1-yl)phenyl)ethylidene)hydrazineylidene)-2,3-dihydrothiazol-4-yl)benzonitrile], the inhibition at 1000 µM (AChE enzyme) is reported as 57.4 ± 1.72%, the inhibition at 100 µM (AChE enzyme) is reported as 25.4 ± 0.856% and the IC50 (AChE enzyme) is reported as greater than 0.1 mM. For the same molecule, the IC50 (BChE enzyme) was greater than 1 mM, the inhibition at 1000 µM (BChE enzyme) was 30.2 ± 1.05% and the inhibition at 100 µM (BChE enzyme) was 21.1 ± 0.947%.
For `CCn1c(-c2ccc(Cl)cc2Cl)csc1=NN=C(C)c1ccc(N2CCCCC2)cc1` [D3g, 4-(2,4-Dichlorophenyl)-3-ethyl-2-((1-(4-(piperidin-1 yl)phenyl)ethylidene)hydrazineylidene)-2,3-dihydrothiazole], the inhibition at 1000 µM (AChE enzyme) was 26.7 ± 1.15%, the inhibition at 100 µM (AChE enzyme) was 20.9 ± 0.884% and the IC50 (AChE enzyme) was greater than 1 mM. The IC50 (BChE enzyme) was greater than 1 mM, the inhibition at 1000 µM (BChE enzyme) was 33.5 ± 1.26% and the inhibition at 100 µM (BChE enzyme) was 26.8 ± 1.06%.
`CCn1c(-c2ccc(Cl)c(Cl)c2)csc1=NN=C(C)c1ccc(N2CCCCC2)cc1` [D3h, 4-(3,4-Dichlorophenyl)-3-ethyl-2-((1-(4-(piperidin-1 yl)phenyl)ethylidene)hydrazineylidene)-2,3-dihydrothiazole] gave an inhibition at 1000 µM (AChE enzyme) of 28.4 ± 1.25%, an inhibition at 100 µM (AChE enzyme) of 23.7 ± 0.969% and an IC50 (AChE enzyme) greater than 1 mM. It also gave an IC50 (BChE enzyme) greater than 1 mM, an inhibition at 1000 µM (BChE enzyme) of 38.7 ± 1.32% and an inhibition at 100 µM (BChE enzyme) of 32.5 ± 1.13%.
For `CCn1c(-c2ccc(C)cc2C)csc1=NN=C(C)c1ccc(N2CCCCC2)cc1` [D3i, 4-(2,4-Dimethylphenyl)-3-ethyl-2-((1-(4-(piperidin-1-yl)phenyl)ethylidene)hydrazineylidene)-2,3-dihydrothiazole], the inhibition at 1000 µM (AChE enzyme) was 40.9 ± 1.59%, the inhibition at 100 µM (AChE enzyme) was 22.1 ± 0.962% and the IC50 (AChE enzyme) was greater than 1 mM. The IC50 (BChE enzyme) was greater than 1 mM, the inhibition at 1000 µM (BChE enzyme) was 31.5 ± 1.04% and the inhibition at 100 µM (BChE enzyme) was 24.1 ± 0.858%.
